Blank lines part the entries; values can stand above or below the compound they belong to.
Columns and labels:
[1] = target: D(2) dopamine receptor (Homo sapiens) (UniProt P14416); experiment: D2SH_AGON Eurofins SafetyScreen44 (BI); settings: filed as agonist, Compound concentration 10.0 uM
[2] = target: Mu-type opioid receptor (Homo sapiens) (UniProt P35372); experiment: MU/H Eurofins SafetyScreen44 (BI); settings: Compound concentration 10.0 uM
[3] = target: T1, Alpha-1A adrenergic receptor (Homo sapiens) (UniProt P35348); experiment: ALPHA1AH_ANTAG Eurofins SafetyScreen44 (BI); settings: filed as antagonist, Compound concentration 10.0 uM
T1 sequence (whole entry): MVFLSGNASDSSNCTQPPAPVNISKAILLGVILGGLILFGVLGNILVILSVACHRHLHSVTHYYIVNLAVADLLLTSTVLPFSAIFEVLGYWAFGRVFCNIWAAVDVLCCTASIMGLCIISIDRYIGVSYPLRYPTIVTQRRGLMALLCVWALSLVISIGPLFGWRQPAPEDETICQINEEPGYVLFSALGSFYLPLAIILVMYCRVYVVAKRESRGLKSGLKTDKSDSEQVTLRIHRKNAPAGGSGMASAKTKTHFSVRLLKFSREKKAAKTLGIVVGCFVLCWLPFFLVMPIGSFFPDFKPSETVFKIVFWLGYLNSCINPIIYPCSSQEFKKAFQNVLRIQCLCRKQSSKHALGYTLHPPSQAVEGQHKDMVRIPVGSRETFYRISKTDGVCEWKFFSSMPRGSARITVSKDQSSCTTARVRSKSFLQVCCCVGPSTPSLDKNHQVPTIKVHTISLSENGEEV

[4] = target: T2, Alpha-2A adrenergic receptor (Homo sapiens) (UniProt P08913); experiment: ALPHA2A/HU Eurofins SafetyScreen44 (BI); settings: Compound concentration 10.0 uM
T2 sequence (whole entry): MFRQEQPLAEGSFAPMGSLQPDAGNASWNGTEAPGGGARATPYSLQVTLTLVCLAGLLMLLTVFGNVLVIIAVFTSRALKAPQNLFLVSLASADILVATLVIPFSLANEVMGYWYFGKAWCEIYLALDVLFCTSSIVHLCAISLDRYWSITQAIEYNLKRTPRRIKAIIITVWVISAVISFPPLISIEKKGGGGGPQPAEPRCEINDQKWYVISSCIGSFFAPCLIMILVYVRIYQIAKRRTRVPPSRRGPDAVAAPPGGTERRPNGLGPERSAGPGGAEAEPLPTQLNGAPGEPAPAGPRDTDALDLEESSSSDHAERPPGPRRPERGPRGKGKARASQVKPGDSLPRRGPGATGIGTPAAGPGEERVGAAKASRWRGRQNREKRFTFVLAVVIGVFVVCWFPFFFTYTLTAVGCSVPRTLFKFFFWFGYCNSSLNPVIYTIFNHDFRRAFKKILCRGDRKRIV

[5] = target: Kappa-type opioid receptor (Homo sapiens) (UniProt P41145); experiment: KAPPA(KOP)_HU Eurofins SafetyScreen44 (BI); settings: Compound concentration 10.0 uM
Sequence of Kappa-type opioid receptor (Homo sapiens) (P41145 whole entry): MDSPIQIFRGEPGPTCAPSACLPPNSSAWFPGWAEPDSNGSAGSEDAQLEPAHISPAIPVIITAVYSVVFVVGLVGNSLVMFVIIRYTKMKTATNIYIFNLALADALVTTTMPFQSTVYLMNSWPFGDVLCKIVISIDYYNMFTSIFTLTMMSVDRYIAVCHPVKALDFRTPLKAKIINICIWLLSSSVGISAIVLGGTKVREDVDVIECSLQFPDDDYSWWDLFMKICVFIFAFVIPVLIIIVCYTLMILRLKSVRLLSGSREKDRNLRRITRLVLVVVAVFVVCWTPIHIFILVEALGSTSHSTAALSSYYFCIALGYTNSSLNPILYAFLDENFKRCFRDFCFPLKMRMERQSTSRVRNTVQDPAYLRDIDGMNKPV

[6] = target: Beta-1 adrenergic receptor (Homo sapiens) (UniProt P08588); experiment: BETA1/HUM Eurofins SafetyScreen44 (BI); settings: Compound concentration 10.0 uM
Sequence of Beta-1 adrenergic receptor (Homo sapiens) (P08588 whole entry, looked up): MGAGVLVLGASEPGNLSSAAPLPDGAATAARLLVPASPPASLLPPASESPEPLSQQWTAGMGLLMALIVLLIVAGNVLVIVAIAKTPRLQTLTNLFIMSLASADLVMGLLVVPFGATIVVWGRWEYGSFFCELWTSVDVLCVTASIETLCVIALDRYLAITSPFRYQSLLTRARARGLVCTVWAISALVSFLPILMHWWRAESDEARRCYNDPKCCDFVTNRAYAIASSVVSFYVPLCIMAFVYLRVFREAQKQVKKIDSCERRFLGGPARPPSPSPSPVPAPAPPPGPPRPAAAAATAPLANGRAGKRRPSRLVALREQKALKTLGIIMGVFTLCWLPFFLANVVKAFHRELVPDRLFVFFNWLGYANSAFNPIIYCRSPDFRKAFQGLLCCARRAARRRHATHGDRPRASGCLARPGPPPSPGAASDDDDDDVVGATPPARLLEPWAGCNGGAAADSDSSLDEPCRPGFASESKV

[7] = target: Prostaglandin G/H synthase 1 (Homo sapiens) (UniProt P23219); experiment: COX-1 Eurofins SafetyScreen44 (BI); settings: Compound concentration 10.0 uM
[8] = target: 5-hydroxytryptamine receptor 1B (Homo sapiens) (UniProt P28222); experiment: 5HT1B(H) Eurofins SafetyScreen44 (BI); settings: filed as antagonist, Compound concentration 10.0 uM
Sequence of 5-hydroxytryptamine receptor 1B (Homo sapiens) (P28222 whole entry): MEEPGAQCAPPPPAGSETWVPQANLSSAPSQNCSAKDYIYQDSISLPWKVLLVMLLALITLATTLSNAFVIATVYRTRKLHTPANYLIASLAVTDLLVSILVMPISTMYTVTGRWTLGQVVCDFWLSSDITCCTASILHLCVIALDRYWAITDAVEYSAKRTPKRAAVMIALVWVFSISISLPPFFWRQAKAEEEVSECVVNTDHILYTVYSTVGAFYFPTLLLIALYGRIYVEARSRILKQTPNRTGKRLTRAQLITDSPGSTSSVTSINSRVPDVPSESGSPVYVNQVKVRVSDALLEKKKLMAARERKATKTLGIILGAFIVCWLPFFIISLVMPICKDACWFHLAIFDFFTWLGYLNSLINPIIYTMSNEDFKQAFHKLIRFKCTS

[9] = target: Histamine H3 receptor (Homo sapiens) (UniProt Q9Y5N1); experiment: H3/H Eurofins SafetyScreen44 (BI); settings: Compound concentration 10.0 uM
Sequence of Histamine H3 receptor (Homo sapiens) (Q9Y5N1 whole entry): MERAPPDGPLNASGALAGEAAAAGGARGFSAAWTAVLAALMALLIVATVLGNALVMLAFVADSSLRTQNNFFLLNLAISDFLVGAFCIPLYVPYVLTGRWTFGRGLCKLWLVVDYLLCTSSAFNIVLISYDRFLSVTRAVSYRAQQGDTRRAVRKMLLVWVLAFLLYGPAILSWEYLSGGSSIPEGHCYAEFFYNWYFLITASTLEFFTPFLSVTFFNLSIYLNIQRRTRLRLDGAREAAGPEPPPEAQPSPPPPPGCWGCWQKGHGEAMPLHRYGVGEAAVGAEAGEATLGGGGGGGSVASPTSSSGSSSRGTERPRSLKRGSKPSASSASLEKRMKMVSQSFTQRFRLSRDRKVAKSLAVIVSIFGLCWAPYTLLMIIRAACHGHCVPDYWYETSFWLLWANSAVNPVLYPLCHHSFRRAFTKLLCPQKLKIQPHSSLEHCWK

[10] = target: GABA-A receptor; anion channel; experiment: GPCRScan assay: inhibition of GABAA/BZP; assay type: protein-complex assay, Rattus norvegicus; set-up: radioligand conc. used [nm] 0.6 – 4.0, parental cells brain tissue
[11] = target: Prostaglandin E2 receptor EP4 subtype (Homo sapiens) (UniProt P35408); experiment: PEP4_HU Eurofins SafetyScreen44 (BI)
Sequence of Prostaglandin E2 receptor EP4 subtype (Homo sapiens) (P35408 whole entry): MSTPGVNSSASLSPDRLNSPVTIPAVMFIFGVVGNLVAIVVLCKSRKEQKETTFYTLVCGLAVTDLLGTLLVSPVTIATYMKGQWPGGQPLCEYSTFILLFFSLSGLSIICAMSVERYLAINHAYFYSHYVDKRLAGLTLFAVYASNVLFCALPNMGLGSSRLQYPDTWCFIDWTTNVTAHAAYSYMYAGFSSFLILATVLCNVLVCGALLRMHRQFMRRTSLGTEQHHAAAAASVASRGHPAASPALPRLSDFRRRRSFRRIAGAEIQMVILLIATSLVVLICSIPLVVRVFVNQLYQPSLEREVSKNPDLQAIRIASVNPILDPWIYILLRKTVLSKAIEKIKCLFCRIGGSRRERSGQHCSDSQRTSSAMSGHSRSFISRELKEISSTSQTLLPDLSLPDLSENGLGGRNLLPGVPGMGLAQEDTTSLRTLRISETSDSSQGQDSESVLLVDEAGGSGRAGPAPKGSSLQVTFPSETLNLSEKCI

[12] = target: Cannabinoid receptor 1 (Homo sapiens) (UniProt P21554); experiment: CB1 Eurofins SafetyScreen44 (BI); settings: Compound concentration 10.0 uM
Sequence of Cannabinoid receptor 1 (Homo sapiens) (P21554 whole entry): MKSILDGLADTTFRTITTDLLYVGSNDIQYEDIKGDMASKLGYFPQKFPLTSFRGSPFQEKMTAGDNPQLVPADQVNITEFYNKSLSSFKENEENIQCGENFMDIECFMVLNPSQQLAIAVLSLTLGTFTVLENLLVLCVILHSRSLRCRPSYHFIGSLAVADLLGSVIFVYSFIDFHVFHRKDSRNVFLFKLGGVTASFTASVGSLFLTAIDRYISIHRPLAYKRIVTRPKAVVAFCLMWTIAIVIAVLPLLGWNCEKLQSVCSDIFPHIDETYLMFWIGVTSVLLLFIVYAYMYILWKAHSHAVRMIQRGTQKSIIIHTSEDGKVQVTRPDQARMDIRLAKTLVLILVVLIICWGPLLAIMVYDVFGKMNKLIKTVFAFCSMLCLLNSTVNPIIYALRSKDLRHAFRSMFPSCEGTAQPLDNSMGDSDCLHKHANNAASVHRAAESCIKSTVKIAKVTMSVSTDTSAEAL

[13] = target: T2, Alpha-2A adrenergic receptor (Homo sapiens); experiment: ALPHA2A/H Eurofins SafetyScreen44 (BI)
[14] = target: D(3) dopamine receptor (Homo sapiens) (UniProt P35462); experiment: D3/HU Eurofins SafetyScreen44 (BI); settings: Compound concentration 10.0 uM
Sequence of D(3) dopamine receptor (Homo sapiens) (P35462 whole entry): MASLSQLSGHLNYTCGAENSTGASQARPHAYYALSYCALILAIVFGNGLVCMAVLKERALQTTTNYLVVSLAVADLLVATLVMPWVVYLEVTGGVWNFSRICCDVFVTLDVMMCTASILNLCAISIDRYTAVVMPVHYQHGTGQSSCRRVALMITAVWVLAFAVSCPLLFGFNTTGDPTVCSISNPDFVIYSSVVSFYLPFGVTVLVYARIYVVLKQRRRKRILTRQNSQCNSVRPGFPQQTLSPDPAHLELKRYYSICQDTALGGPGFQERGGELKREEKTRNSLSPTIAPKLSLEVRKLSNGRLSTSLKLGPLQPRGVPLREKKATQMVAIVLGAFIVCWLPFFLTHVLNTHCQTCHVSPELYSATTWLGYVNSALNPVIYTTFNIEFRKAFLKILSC

[15] = target: Beta-1 adrenergic receptor (Homo sapiens) (UniProt P08588); experiment: BETA1/HU Eurofins SafetyScreen44 (BI); settings: Compound concentration 10.0 uM
[16] = target: 5-hydroxytryptamine receptor 2B (Homo sapiens) (UniProt P41595); experiment: 5HT2B/HU Eurofins SafetyScreen44 (BI); settings: Compound concentration 10.0 uM
[17] = target: Glucocorticoid receptor (Homo sapiens) (UniProt P04150); experiment: GLUCOCORTICO Eurofins SafetyScreen44 (BI); settings: Compound concentration 10.0 uM
[18] = target: T3, Muscarinic acetylcholine receptor M2 (Homo sapiens) (UniProt P08172); experiment: M2/HU Eurofins SafetyScreen44 (BI); settings: Compound concentration 10.0 uM
T3 sequence (whole entry): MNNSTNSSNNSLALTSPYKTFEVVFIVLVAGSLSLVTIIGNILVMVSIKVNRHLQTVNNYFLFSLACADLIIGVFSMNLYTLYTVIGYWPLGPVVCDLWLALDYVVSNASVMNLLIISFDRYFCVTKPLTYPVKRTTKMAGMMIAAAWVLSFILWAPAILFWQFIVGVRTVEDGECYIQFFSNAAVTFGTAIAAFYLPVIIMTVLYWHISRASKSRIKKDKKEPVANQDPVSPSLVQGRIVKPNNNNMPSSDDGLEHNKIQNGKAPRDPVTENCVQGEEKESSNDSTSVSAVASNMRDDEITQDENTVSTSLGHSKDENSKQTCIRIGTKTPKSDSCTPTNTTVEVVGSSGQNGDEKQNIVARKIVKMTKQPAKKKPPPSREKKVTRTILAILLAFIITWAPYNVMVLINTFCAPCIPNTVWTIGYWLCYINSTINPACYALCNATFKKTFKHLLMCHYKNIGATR

[19] = target: D(4) dopamine receptor (Homo sapiens) (UniProt P21917); experiment: D4.2/H Eurofins SafetyScreen44 (BI); settings: Compound concentration 10.0 uM
Sequence of D(4) dopamine receptor (Homo sapiens) (P21917 whole entry): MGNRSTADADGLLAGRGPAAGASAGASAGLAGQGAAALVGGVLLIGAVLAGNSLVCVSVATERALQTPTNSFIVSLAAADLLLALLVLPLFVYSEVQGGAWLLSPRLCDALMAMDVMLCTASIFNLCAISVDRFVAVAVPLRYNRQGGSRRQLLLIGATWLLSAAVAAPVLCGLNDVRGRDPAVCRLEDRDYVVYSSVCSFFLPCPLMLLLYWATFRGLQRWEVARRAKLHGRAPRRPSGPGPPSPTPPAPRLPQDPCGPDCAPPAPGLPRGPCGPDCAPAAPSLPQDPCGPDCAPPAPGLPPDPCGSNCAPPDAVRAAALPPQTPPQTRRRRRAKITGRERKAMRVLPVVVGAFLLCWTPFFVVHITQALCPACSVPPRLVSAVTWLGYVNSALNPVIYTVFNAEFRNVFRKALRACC

[20] = target: Neuropeptide Y receptor type 2 (Homo sapiens) (UniProt P49146); experiment: Y2/HU Eurofins SafetyScreen44 (BI); settings: Compound concentration 10.0 uM
[21] = target: Estrogen receptor (Homo sapiens) (UniProt P03372); experiment: ERALPHA/H Eurofins SafetyScreen44 (BI); settings: Compound concentration 10.0 uM
[22] = target: Muscarinic acetylcholine receptor M3 (Homo sapiens, UniProt P20309); experiment: GPCRScan assay: inhibition of M3; set-up: radioligand conc. used [nm] 0.3 – 1.0, parental cells stable CHO
Sequence of Muscarinic acetylcholine receptor M3 (P20309 whole entry, canonical isoform): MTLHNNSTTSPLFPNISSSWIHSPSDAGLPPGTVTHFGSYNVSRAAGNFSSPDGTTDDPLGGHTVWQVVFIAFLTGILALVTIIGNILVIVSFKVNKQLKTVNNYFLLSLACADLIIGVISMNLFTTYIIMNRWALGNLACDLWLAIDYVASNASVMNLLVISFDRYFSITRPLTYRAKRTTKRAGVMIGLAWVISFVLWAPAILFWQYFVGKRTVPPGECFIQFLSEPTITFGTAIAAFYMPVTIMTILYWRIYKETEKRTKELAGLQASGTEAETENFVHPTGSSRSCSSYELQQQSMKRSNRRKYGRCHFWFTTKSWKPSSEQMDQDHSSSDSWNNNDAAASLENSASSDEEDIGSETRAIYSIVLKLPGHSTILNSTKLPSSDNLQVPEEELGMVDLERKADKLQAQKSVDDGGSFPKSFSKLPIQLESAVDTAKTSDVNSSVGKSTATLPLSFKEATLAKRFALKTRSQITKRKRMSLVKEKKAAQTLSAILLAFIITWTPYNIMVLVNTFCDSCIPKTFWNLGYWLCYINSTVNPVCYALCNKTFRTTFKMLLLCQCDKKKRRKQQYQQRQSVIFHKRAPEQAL

[23] = target: ATP-sensitive inward rectifier potassium channel 1 isoform X1 (Mesocricetus auratus) (UniProt A0A1U8CU73); experiment: K+/KATP/HA Eurofins SafetyScreen44 (BI); settings: Cricetinae; Compound concentration 10.0 uM
Sequence of ATP-sensitive inward rectifier potassium channel 1 isoform X1 (Mesocricetus auratus) (A0A1U8CU73 as listed by the source): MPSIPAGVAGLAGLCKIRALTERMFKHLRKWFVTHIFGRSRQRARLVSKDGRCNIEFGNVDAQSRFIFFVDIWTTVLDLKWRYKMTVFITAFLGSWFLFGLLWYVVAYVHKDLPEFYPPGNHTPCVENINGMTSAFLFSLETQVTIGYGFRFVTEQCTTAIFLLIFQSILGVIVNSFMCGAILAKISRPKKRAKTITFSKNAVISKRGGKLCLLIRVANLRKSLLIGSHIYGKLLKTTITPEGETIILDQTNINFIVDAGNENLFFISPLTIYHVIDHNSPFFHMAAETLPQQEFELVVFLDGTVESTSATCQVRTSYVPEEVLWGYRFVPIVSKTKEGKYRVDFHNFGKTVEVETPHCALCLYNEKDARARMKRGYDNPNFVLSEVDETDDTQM

[24] = target: Adenosine receptor A3 (Homo sapiens) (UniProt P0DMS8); experiment: A3/H Eurofins SafetyScreen44 (BI); settings: Compound concentration 10.0 uM

Sequence of D(2) dopamine receptor (Homo sapiens) (P14416 whole entry): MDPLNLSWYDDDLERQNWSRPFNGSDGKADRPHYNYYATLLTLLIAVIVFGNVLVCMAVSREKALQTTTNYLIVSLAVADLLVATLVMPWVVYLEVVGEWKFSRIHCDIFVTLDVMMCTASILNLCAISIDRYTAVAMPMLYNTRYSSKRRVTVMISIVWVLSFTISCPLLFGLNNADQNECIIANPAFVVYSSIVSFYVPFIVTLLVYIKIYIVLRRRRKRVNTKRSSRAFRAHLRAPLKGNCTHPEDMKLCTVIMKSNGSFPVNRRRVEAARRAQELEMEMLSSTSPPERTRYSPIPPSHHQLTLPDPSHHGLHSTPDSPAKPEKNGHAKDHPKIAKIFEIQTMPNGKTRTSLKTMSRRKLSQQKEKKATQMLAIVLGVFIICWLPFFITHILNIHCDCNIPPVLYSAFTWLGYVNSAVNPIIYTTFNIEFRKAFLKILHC

Structure (SMILES): COCCCS(=O)(=O)c1cc(C)c(-c2ccc(F)c3c2CC[C@H]3Oc2ccc3c(c2)OC[C@H]3CC(=O)O)c(C)c1
residual activity [1]: 88% | residual activity [2]: 75% | residual activity [3]: 95% | residual activity [4]: 94% | residual activity [5]: 96% | residual activity [6]: 88% | residual activity [7]: 88% | residual activity [8]: 97%

Ki [10]: > 10 µM | pKi [10]: < 5 | Ki [22]: > 10 µM | pKi [22]: < 5
Structure (SMILES): Cc1cc(OCCC(C)(C)O)cc(C)c1-c1ccc(F)c2c1CC[C@H]2Oc1ccc2c(c1)OC[C@H]2CC(=O)O
residual activity [9]: 111% | residual activity ([11]; Compound concentration 0.3 uM): 102% | residual activity ([11]; Compound concentration 1.0 uM): 108% | residual activity ([11]; Compound concentration 3.0 uM): 92% | residual activity ([11]; Compound concentration 10.0 uM): 55% | residual activity ([11]; Compound concentration 30.0 uM): 11% | residual activity [12]: 100% | residual activity ([13]; Compound concentration 0.1 uM): 93% | residual activity ([13]; Compound concentration 0.3 uM): 90% | residual activity ([13]; Compound concentration 1.0 uM): 83% | residual activity ([13]; Compound concentration 3.0 uM): 64% | residual activity ([13]; Compound concentration 10.0 uM): 5.5% | residual activity [14]: 63% | residual activity [15]: 98% | residual activity [16]: 82% | residual activity [17]: 67% | residual activity [18]: 92% | residual activity [19]: 99% | residual activity [20]: 99% | residual activity [21]: 103% | residual activity [23]: 95% | residual activity [24]: 100%
